Reference: US20220031607A1, “INJECTION COMPOSITION CONTAINING FAB I INHIBITOR, AND PREPARATION METHOD THEREFOR” (CRYSTALGENOMICS, INC., priority 2019, published 2022)

Tests used:
[1] = Evaluation of water solubility according to pH; format: physicochemical; conditions: thermodynamic from solid
Procedure: Experimental Example 1-1: […] After completion of the stirring, insoluble substances that may remain were removed by first centrifugation and second filtration with 0.22 μm filter. The substances were diluted with organic solvent methanol and analyzed by HPLC for […] of the solubility. […] As the pH increases, the solubility tends to decrease rapidly.

[2] = Evaluation of excipient suitability (related substances on storage at 60° C.); format: physicochemical; design: Total related substances, Initial value: unit not given here; conditions: for Total related substances, Severe (1 week): 60° C.
Procedure: The resulting product was stored at 60° C. and the stability of the compound of formula 1 was measured. The measurement of related substances was evaluated according to the guidelines for the evaluation of related substances of the Ministry of Food and Drug Safety, and the results are shown in Table 2.

[3] = mixed with Beta-Hydroxypropyl cyclodextrin

solubility at 2 h ([1]; aqueous buffer, aqueous solution pH 3, room temperature): 6 µg/mL
solubility at 2 h ([1]; aqueous buffer, aqueous solution pH 7, room temperature): 2.5 µg/mL
solubility at 2 h ([1]; aqueous solutions, aqueous buffer, pH 4 to 8): 2 to 5 µg/mL
solubility at 2 h ([1]; simulated gastric fluid, aqueous solution pH 1.2, room temperature): ~1000 µg/mL
Total related substances, Initial value ([2]; Compound of formula 1 alone): 0.5
Total related substances, Severe (1 week) ([2]; Compound of formula 1 alone): 0.5
Total related substances, Initial value [2, 3]: 0.5
Total related substances, Severe (1 week) [2, 3]: 0.6
Total related substances, Initial value ([2]; mixed with Cremophor 40): 1.6
Total related substances, Severe (1 week) ([2]; mixed with Cremophor 40): 3.4
Total related substances, Initial value ([2]; mixed with Glycerin): 1.4
Total related substances, Severe (1 week) ([2]; mixed with Glycerin): 1.1
Total related substances, Initial value ([2]; mixed with Labrasol): 6.2
Total related substances, Initial value ([2]; mixed with Oleic acid): 6.2
Total related substances, Initial value ([2]; mixed with Olive oil): 1.1
Total related substances, Severe (1 week) ([2]; mixed with Olive oil): 0.7
Total related substances, Initial value ([2]; mixed with PEG): 1.1
Total related substances, Initial value ([2]; mixed with PEG 400): 6.4
Total related substances, Severe (1 week) ([2]; mixed with PEG 400): 9.8
Total related substances, Initial value ([2]; mixed with PEG 20,000): 4.2
Total related substances, Severe (1 week) ([2]; mixed with PEG 20,000): 1
Total related substances, Severe (1 week) ([2]; mixed with PEG): 7
Total related substances, Initial value ([2]; mixed with PVA): 0.9
Total related substances, Initial value ([2]; mixed with PVA 2,000): 0.9
Total related substances, Severe (1 week) ([2]; mixed with PVA 2,000): 0.6
Total related substances, Severe (1 week) ([2]; mixed with PVA): 0.6
Total related substances, Initial value ([2]; mixed with Poloxamer 407): 0.9
Total related substances, Severe (1 week) ([2]; mixed with Poloxamer 407): 0.5
Total related substances, Initial value ([2]; mixed with Propylene glycol): 1
Total related substances, Severe (1 week) ([2]; mixed with Propylene glycol): 5
Total related substances, Initial value ([2]; mixed with Solutol HS 15): 0.7
Total related substances, Severe (1 week) ([2]; mixed with Solutol HS 15): 3.8
Total related substances, Initial value ([2]; mixed with Soybean Oil): 1.1
Total related substances, Severe (1 week) ([2]; mixed with Soybean Oil): 1.4
Total related substances, Initial value ([2]; mixed with Transcutol HP): 1.9
Total related substances, Severe (1 week) ([2]; mixed with Transcutol HP): 9.1
Total related substances, Initial value ([2]; mixed with Tween 80): 1.2
Total related substances, Severe (1 week) ([2]; mixed with Tween 80): 2.6
Stability with excipients ([2]; with soybean oil, olive oil, Tween 80, PEG 20000, PVA, PVA 2000, poloxamer 407, beta-hydroxypropyl cyclodextrin, glycerin): relatively stable
Structure (SMILES): Cc1c(N)cccc1Cn1ccc(OCCc2cccs2)cc1=O [Compound of formula 1, 1-(3-amino-2-methylbenzyl)-4-(2-thiophen-2-yl-ethoxy)-1H-pyridin-2-one]
